The subject of one test is ATXN3 pre-mRNA. As to the kind of experiment: RT-qPCR Assay to Quantify Exon 4 Skipping in ATXN3 pre-mRNA in Cells. Particulars: percent exon 4 skipping in ATXN3 pre-mRNA, RT-qPCR of cell lysates; average IC50. It is filed as cell-based. Put shortly:
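Cells plated at 10,000/well onto a 7-point, 3.16-fold DMSO dilution series (duplicates), incubated 24 h at 37 °C, then lysed. Exon 4 skipping measured by one-step RT-qPCR (48 °C RT, 40 cycles); IC50 interpolated from dose-response fit of percent skipping.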
In general terms: Real-time PCR tracks product formation cycle by cycle.

The subject of test [1] is Total ATXN3 (tATXN3) protein. As to the kind of experiment: Endogenous Total ATXN3 (tATXN3) Protein Assay (MSD immunoassay of cell lysates). It counts as cell-based. Particulars: average IC50, total ATXN3 protein in cell lysate after 48 h with compound (Table 1). Put shortly:
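Cells in DMEM/10% FBS were plated at 10,000 per well onto 7-point, 3.16-fold compound dilutions in duplicate for 48 h at 37° C, then lysed. Total ATXN3 in lysates was measured by MSD sandwich immunoassay: mouse anti-ATXN3 capture, rabbit anti-ATXN3 detection, SULFO-TAG anti-rabbit. Average IC50 was reported in star bins.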

Regarding “2-((2R,3R)-3-aminotetrahydro-2H-pyran-2-yl)-5-chloro-3-iodo-N-(thiophen-2-ylmethyl)thieno[3,2-b]pyridin-7-amine and 2-((2S,3S)-3-aminotetrahydro-2H-pyran-2-yl)-5-chloro-3-iodo-N-(thiophen-2-ylmethyl)thieno[3,2-b]pyridin-7-amine [Compound 266]”, the IC50 (with ATXN3 pre-mRNA; in test [1]) was 0.03 to 0.3 µM each time.
As for `N[C@@H]1CCCC[C@H]1c1sc2c(NCc3ccccc3)nc(Cl)nc2c1Br` [Compound 66, 6-((1R,2R)-2-aminocyclohexyl)-N-benzyl-7-bromo-2-chlorothieno[3,2-d]pyrimidin-4-amine], the IC50 (with ATXN3 pre-mRNA; in test [1]) was above 1 µM each time.
As for `[2H]C1=C([2H])C([2H])([2H])[C@H](c2sc3c(NCc4ccccc4)cc(Cl)nc3c2C)[C@@H](N)C1([2H])[2H]` [Compound 292, 2-((1S,6S)-6-aminocyclohex-3-en-1-yl-2,2,3,4,5,5-d6)-N-benzyl-5-chloro-3-methylthieno[3,2-b]pyridin-7-amine], the IC50 (in the test with ATXN3 pre-mRNA; in test [1]) was 0.03 to 0.3 µM throughout.
For the compound `Cc1c([C@@H]2CCC[C@H]2N)sc2c(NCc3cccs3)cc(Cl)nc12` [Compound 5, 2-((1R,2R)-2-aminocyclopentyl)-5-chloro-3-methyl-N-(thiophen-2-ylmethyl)thieno[3,2-b]pyridin-7-amine], the IC50 (with ATXN3 pre-mRNA; in test [1]) was above 1 µM each time.
Consider `N[C@H]1CC=CC[C@@H]1c1c(I)c2nc(Cl)cc(NCc3cccs3)c2n1C(F)F` [Compound 325, 2-((1S,6S)-6-aminocyclohex-3-en-1-yl)-5-chloro-1-(difluoromethyl)-3-iodo-N-(thiophen-2-ylmethyl)-1H-pyrrolo[3,2-b]pyridin-7-amine], for which the concentration for half-maximal inhibition (IC50) (in the test on ATXN3 pre-mRNA; in test [1]) was 0.03 to 0.3 µM throughout.
In the case of `N[C@@H]1CCC[C@H]1c1sc2c(NCc3ccccc3)cc(Cl)nc2c1Br` [Compound 161, 2-((1R,2R)-2-aminocyclopentyl)-N-benzyl-3-bromo-5-chlorothieno[3,2-b]pyridin-7-amine], the IC50 (in the test with ATXN3 pre-mRNA; in test [1]) was above 1 µM each time.
`N[C@@H]1CC=CC[C@H]1c1sc2c(NCc3ccncc3)cc(Cl)nc2c1Cl` [Compound 433, 2-((1R,6R)-6-aminocyclohex-3-en-1-yl)-3,5-dichloro-N-(pyridin-4-ylmethyl)thieno[3,2-b]pyridin-7-amine]: the IC50 (in the test with ATXN3 pre-mRNA; in test [1]) was 0.03 to 0.3 µM throughout.
For `Cc1c([C@H]2CC=C(C(=O)N(C)C)C[C@@H]2N)sc2c(NCc3cccs3)cc(Cl)nc12` [Compound 312, (4S,5S)-5-amino-4-(5-chloro-3-methyl-7-((thiophen-2-ylmethyl)amino)thieno[3,2-b]pyridin-2-yl)-N,N-dimethylcyclohex-1-ene-1-carboxamide], the half-inhibitory concentration (IC50) (in the test on ATXN3 pre-mRNA; in test [1]) was 0.03 to 0.3 µM throughout.
Take “2-((1R,2R)-2-amino-5,5-difluorocyclohexyl)-5-chloro-3-methyl-N-(thiophen-2-ylmethyl)thieno[3,2-b]pyridin-7-amine and 2-((1S,2S)-2-amino-5,5-difluorocyclohexyl)-5-chloro-3-methyl-N-(thiophen-2-ylmethyl)thieno[3,2-b]pyridin-7-amine [Compound 333]”: the IC50 (with ATXN3 pre-mRNA; in test [1]) was 0.03 to 0.3 µM each time.
For “2-((2R,3R)-3-aminotetrahydro-2H-pyran-2-yl)-5-chloro-N-(furan-2-ylmethyl)-3-methylthieno[3,2-b]pyridin-7-amine and 2-((2S,3S)-3-aminotetrahydro-2H-pyran-2-yl)-5-chloro-N-(furan-2-ylmethyl)-3-methylthieno[3,2-b]pyridin-7-amine [Compound 25]”, the IC50 (in the test on ATXN3 pre-mRNA; in test [1]) was 0.03 to 0.3 µM in each case.
Take `N[C@H]1COCC[C@@H]1c1sc2c(NCc3nccs3)cc(Cl)nc2c1I` [Compound 265, 2-((3R,4S)-3-aminotetrahydro-2H-pyran-4-yl)-5-chloro-3-iodo-N-(thiazol-2-ylmethyl)thieno[3,2-b]pyridin-7-amine]: the IC50 (as a rule, the point on the concentration scale where inhibition reaches its midpoint) in the test on ATXN3 pre-mRNA was at most 0.03 µM; in test [1] it was 0.03 to 0.3 µM.
The corresponding values for `Cc1c([C@@H]2CCCC[C@H]2N)sc2c(NCc3ccco3)cc(Cl)nc12` [Compound 401, 2-((1R,2R)-2-aminocyclohexyl)-5-chloro-N-(furan-2-ylmethyl)-3-methylthieno[3,2-b]pyridin-7-amine] are 0.3 to 1 µM and above 1 µM.
For `CN(Cc1ccccc1)c1cc(Cl)nc2c(C#CCCCO)c([C@H]3CC=CC[C@@H]3N)sc12` [Compound 453, 5-(2-((1S,6S)-6-aminocyclohex-3-en-1-yl)-7-(benzyl(methyl)amino)-5-chlorothieno[3,2-b]pyridin-3-yl)pent-4-yn-1-ol] the same measures were 0.3 to 1 µM and 0.3 to 1 µM.
Consider `N[C@@H]1CCCO[C@H]1c1c(I)c2nc(Cl)nc(NCc3ccco3)c2n1C(F)F` [Compound 422, 6-((2R,3R)-3-aminotetrahydro-2H-pyran-2-yl)-2-chloro-5-(difluoromethyl)-N-(furan-2-ylmethyl)-7-iodo-5H-pyrrolo[3,2-d]pyrimidin-4-amine], for which the IC50 (with ATXN3 pre-mRNA; in test [1]) was 0.03 to 0.3 µM throughout.
With `N#Cc1cc(NCc2ccco2)c2sc([C@@H]3CC=CC[C@H]3N)c(Cl)c2n1` [Compound 443, 2-((1R,6R)-6-aminocyclohex-3-en-1-yl)-3-chloro-7-((furan-2-ylmethyl)amino)thieno[3,2-b]pyridine-5-carbonitrile], the half-inhibitory concentration (IC50) (with ATXN3 pre-mRNA; in test [1]) was at most 0.03 µM in each case.
As for “2-((1S,2S)-2-aminocyclohexyl)-5-chloro-3-(fluoromethyl)-N-(thiophen-2-ylmethyl)thieno[3,2-b]pyridin-7-amine and 2-((1R,2R)-2-aminocyclohexyl)-5-chloro-3-(fluoromethyl)-N-(thiophen-2-ylmethyl)thieno[3,2-b]pyridin-7-amine [Compound 400]”, the IC50 (in the test on ATXN3 pre-mRNA; in test [1]) was 0.3 to 1 µM each time.
With `N[C@H]1CC=CC[C@@H]1c1sc2c(NCc3ccncc3)nc(Cl)nc2c1Cl` [Compound 214, 6-((1S,6S)-6-aminocyclohex-3-en-1-yl)-2,7-dichloro-N-(pyridin-4-ylmethyl)thieno[3,2-d]pyrimidin-4-amine], the IC50 (in the test on ATXN3 pre-mRNA; in test [1]) was at most 0.03 µM each time.
In the case of `CC1=C(C)C[C@@H](c2sc3c(NCc4ccco4)cc(Cl)nc3c2Cl)[C@H](N)C1` [Compound 444, 2-((1R,6R)-6-amino-3,4-dimethylcyclohex-3-en-1-yl)-3,5-dichloro-N-(furan-2-ylmethyl)thieno[3,2-b]pyridin-7-amine], the IC50 with ATXN3 pre-mRNA is 0.3 to 1 µM; in test [1], above 1 µM.
The corresponding values for `N[C@@H]1CC=CC[C@H]1c1sc2c(NCc3ccncc3F)cc(Cl)nc2c1Cl` [Compound 376, 2-((1R,6R)-6-aminocyclohex-3-en-1-yl)-3,5-dichloro-N-((3-fluoropyridin-4-yl)methyl)thieno[3,2-b]pyridin-7-amine] are 0.03 to 0.3 µM and 0.03 to 0.3 µM.
The corresponding values for “6-((1R,6R)-6-aminocyclohex-3-en-1-yl-2,2,3,4,5,5-d6)-2-chloro-N-(furan-2-ylmethyl)-7-methylthieno[3,2-d]pyrimidin-4-amine and 6-((1S,6S)-6-aminocyclohex-3-en-1-yl-2,2,3,4,5,5-d6)-2-chloro-N-(furan-2-ylmethyl)-7-methylthieno[3,2-d]pyrimidin-4-amine [Compound 297]” are 0.03 to 0.3 µM and 0.03 to 0.3 µM.

The values are drawn from patent publication US20250382305A1 (PTC THERAPEUTICS, INC., priority 2022, published 2025).
